Tests used:
h5-HT2CR = target: T1, h5-HT2CR (Homo sapiens, UniProt P28335); assay: 5-HT-induced Cai^2+ release in h5-HT2CR-CHO cells; format: cell-based; conditions: 1 nM
T1 sequence (P28335 33-458): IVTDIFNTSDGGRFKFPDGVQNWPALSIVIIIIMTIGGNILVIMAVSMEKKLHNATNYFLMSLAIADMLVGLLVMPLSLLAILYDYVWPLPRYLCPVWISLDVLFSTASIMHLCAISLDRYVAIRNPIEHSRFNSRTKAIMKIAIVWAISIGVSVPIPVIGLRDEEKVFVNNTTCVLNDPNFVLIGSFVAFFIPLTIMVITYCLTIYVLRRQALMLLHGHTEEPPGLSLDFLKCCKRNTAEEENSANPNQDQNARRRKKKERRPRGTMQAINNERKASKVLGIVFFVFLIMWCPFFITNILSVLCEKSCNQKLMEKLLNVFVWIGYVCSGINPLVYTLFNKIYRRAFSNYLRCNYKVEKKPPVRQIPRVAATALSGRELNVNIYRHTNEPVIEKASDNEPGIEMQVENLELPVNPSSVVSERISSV

HERG = HERG (Homo sapiens, UniProt Q12809); assay: NIMH PDSP radioligand binding displacement
HERG, sequence (Q12809 whole entry): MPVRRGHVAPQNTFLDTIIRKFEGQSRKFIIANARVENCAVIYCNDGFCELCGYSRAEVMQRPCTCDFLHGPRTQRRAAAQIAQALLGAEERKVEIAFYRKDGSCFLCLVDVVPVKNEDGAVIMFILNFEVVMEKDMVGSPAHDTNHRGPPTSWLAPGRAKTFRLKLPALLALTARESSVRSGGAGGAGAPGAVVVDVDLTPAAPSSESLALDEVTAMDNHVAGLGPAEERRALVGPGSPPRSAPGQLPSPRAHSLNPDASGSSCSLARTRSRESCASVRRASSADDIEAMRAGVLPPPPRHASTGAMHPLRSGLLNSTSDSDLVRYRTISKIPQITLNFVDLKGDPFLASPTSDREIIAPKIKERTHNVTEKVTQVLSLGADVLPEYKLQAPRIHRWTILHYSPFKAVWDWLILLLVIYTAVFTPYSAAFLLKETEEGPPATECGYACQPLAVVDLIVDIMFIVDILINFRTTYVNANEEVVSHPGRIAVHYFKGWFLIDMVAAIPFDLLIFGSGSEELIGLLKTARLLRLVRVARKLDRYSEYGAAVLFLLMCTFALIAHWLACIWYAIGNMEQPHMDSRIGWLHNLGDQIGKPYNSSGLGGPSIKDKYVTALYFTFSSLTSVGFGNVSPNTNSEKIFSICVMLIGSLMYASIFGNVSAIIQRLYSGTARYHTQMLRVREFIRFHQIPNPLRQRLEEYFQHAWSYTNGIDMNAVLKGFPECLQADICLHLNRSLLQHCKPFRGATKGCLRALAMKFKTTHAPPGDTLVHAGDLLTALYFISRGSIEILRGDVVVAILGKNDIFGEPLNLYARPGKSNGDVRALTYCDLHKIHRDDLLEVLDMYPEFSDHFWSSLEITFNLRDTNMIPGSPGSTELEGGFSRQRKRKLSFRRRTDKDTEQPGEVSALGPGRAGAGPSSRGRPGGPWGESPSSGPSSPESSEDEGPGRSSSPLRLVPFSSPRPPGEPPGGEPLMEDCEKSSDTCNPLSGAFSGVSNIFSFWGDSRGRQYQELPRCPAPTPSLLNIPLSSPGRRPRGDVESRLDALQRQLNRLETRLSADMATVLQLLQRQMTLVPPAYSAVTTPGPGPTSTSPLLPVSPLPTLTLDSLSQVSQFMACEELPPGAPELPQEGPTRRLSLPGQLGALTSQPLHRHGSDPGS

σ2 receptor = target: T2, σ2 receptor (Rattus norvegicus, UniProt Q5U3Y7); assay: NIMH PDSP radioligand binding displacement
T2 sequence (Q5U3Y7 1-176): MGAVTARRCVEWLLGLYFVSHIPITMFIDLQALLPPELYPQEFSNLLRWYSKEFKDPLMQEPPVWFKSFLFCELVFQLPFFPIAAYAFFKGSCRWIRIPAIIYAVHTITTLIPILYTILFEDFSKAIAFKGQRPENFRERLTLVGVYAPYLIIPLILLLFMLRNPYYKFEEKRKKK

male Sprague–Dawley rats = assay: Novelty-induced; format: in vivo, rat; conditions: 30 mg/kg ip, 30 min prior; vs vehicle; p < 0.0001

5-HT2CR PAM activity (h5-HT2CR)	SMILES	further results
potentiated 5-HT-evoked Cai^2+ release	CCCCCCCC/C=C\CCCCCCCC(=O)NCCCO [Compound 8, N-(3-Hydroxypropyl)oleamide]	–
–	CCCCCCCC/C=C\CCCCCCCC(=O)NC(CO)CO [Compound 11, N-(1,3-Dihydroxypropan-2-yl)oleamide]	displacement of binding to the hERG potassium channel (HERG): did not displace binding
–	CCCCCCCC/C=C\CCCCCCCC(=O)NC(CO)(CO)CO [Compound 13, N-(1,3-Dihydroxy-2-(hydroxymethyl)propan-2-yl)oleamide]	Ki (σ2 receptor): 3.6 µM; total ambulations over a 90 min session (male Sprague–Dawley rats): significantly reduced total ambulations vs vehicle
did not evoke PAM activity	CCCCCCCC/C=C\CCCCCCCC(=O)NCC(OCC)OCC [Compound 14, N-(2,2-Diethoxyethyl)oleamide]	–

SMILES	5-HT2CR PAM activity (h5-HT2CR)	further results
CCCCCCCC/C=C\CCCCCCCC(=O)NC[C@H](O)CO [Compound 10, (S)-N-(2,3-Dihydroxypropyl)oleamide]	inactive	–
